Results taken from patent US10391070B2, “Compositions and methods for treating neurological diseases or injury” (MUSC FOUNDATION FOR RESEARCH DEVELOPMENT, priority 2012, dated 2019).

What was measured:
HT22 cells [1] = assay: Glutathione determination in glutamate-treated cells; assay type: cell-based, mouse; details: HT22, 10 mM glutamate 8 hrs
Procedure: The content of total glutathione (reduced and oxidized) in the supernatant of cell homogenate was measured using the glutathione assay kit (Cayman Chemical) in microtiter plate assay, which utilizes an enzymatic recycling method, using glutathione reductase, for the quantification of glutathione. The sulfhydryl group of glutathione reacted with 5,5′-dithiobis-2-nitrobenzoic acid (DTNB) and produced a yellow-colored 5-thio-2-nitrobenzoic acid (TNB), which was measured at 405 nm.

[2] = Antioxidant activity assay (DPPH free radical scavenging); details: 20 μM, 100 μM DPPH in methanol
Procedure: Antioxidant activity of various reagents was assayed as previously described by monitoring the disappearance of the optical absorbance of the stable-free radical DPPH on reaction with test compounds (Blois, 1958). The rate of the reaction represents the antioxidant potency of test agents. The known free radical scavenger Trolox and ascorbic acid were used as positive controls. Briefly, 10 μL of test reagents at final concentrations of 20 μM were added to 200 μL of 100 μM DPPH in methanol. Optical absorbance of DPPH at 517 nm was immediately monitored for 10 min.

HT22 cells [3] = assay: t-BuOOH toxicity protection (MTS cell viability); assay type: cell-based, mouse; details: HT22, 50 μM t-BuOOH
Procedure: Cell viability was assessed by the ability of the viable cells to metabolize 3-(4,5-dimethylthiazol-2-yl)-5-(3-carboxymethoxyphenyl)-2(4-sulfophenyl)2-H-tetrazolium, inner salt (MTS), as described previously (Cory et al., 1991). The metabolism of tetrazolium salts is often used to measure cellular proliferation, but in the system used here, it has been previously shown to correlate well with cell viability as determined by trypan blue exclusion and colony-forming assays (Davis and Maher, 1994). Briefly, HT-22 cells were seeded onto 96-well plates at 5.0×10^3 cells per well in 75 μL of medium and maintained at 37° C. in 5% CO2 overnight prior to the initiation of experimental treatments. For glutamate toxicity testing, cells were subsequently treated with 25 μL of medium containing glutamate (monosodium glutamate, Sigma, 1 M stock concentration in media, to achieve a final concentration of 10 mM) plus inhibitors (stock in DMSO) and maintained at 37° C. in 5% CO2. For t-BuOOH toxicity testing, cells were subsequently treated with 25 μL of medium containing t-BuOOH (Sigma, 10 mM stock concentration, to achieve a final concentration of 50 μM) plus inhibitors (stock in DMSO) and maintained at 37° C. in 5% CO2 for 3 hours, after which the media was removed, cells washed gently with HBSS, the media replaced with standard culture media, and the cells returned to incubation at 37° C. in 5% CO2. For both glutamate and t-BuOOH treatments, 10 μl of MTS solution was added to each well 24 hrs after initial treatment, and the cells were maintained in growth medium for 2 h at 37° C. Absorbance at 490 nm was subsequently measured by a SpectraMax 190 plate reader (Molecular Devices). The growth medium without cells in the presence of MTS solution was used as solution background and untreated cells were considered the controls. Cell viability was calculated as a percentage compared with untreated controls. EC50 determinations were based on 12-point titrations using GraphPad Prism, and each experiment was repeated at least four times. Morphology of HT22 cells following treatments was determined by phase-contrast microscopy. Digital images of cells grown on cell culture plates were captured at 10× magnification.
In light of the findings that the protection against glutamate induced cell death provided by VK2, 2q, and 2j, are at least partially mediated by the attenuation of the increased production of endogenous ROS, the inventors also examined the effects of these compounds on tert-butylhydroperoxide (t-BuOOH) induced cell death. t-BuOOH is a short chain analog of the lipid hydroperoxides formed from peroxidation reactions during oxidative stress that is cytotoxic to cells (Lemasters and Nieminen, 1997). […] It is well documented that cells undergo rapid and extensive fragmentation in the early stages of cell death (Bossy-Wetzel et al., 2003; Frank et al., 2001; Breckenridge et al., 2008; Jagasia et al., 2005; Lee et al., 2004). Recent studies have shown that mitochondrial fragmentation is regulated by the translocation of dynamin-related protein 1 (Drp1) from the cytosol to the mitochondria, where it assembles to form spirals at division sites (Smirnova et al., 2001). Although the exact molecular mechanism is still not well studied, the activity of Drp1 is regulated by the phosphorylation and dephosphorylation of specific serine residues by protein kinases and phosphatases such as calcineurin and the PGAM5 (Wang et al., 2012; Chang et al., 2007). […]

zebrafish larvae = assay: Zebrafish larval toxicity (NOEC, lethal dose); assay type: in vivo; details: 7 dpf zebrafish larvae; highest sub-lethal dose
Procedure: Using a 96-well plate, one zebrafish larva (7 dpf) was placed in each well in 100 μL of tank water (TW). 100 μL of each compound (0.5-15 μM) was then added to each well for 12 animals (one row) to give a final volume of 200 […]. A control row was tested for DMSO toxicity effects. […] Each drug was assessed for the no observed effect concentration (NOEC), the highest non-lethal dose resulting in no apparent toxic effects.
Zebrafish (AB strain) were obtained from the Zebrafish International Resource Center (supported by P40 RR012546 from NIH-NCRR). Zebrafish were maintained and crossed according to standard methods (Westerfield, 2000). Fertilized eggs were collected and placed in E3 embryo medium and positioned in an incubator set at 28.5° C. with a 14/10 h light/dark cycle (Kimmel et al., 1995). To determine the lethal dose of each compound, 96-well plates containing one zebrafish (7 days post-fertilization, dpf) per well in 100 μL of tank water were used. 100 μL of each compound (0.5 to 15 μM) was added to each well for 12 animals (one row) for a final volume of 200 μL. One row of larvae was used as DMSO only controls. […] All zebrafish studies were approved by the Medical University of South Carolina Institutional Animal Care and Use Committee (AR #2850) and performed in accordance with the guidelines.
Using a 96-well plate, one zebrafish larva (7 dpf) was placed in each well in 100 μL of tank water. 100 μL of each compound was then added to each well for 12 animals (one row) for a final volume of 200 μL. One row of zebrafish larvae was used as DMSO only controls. […] Toxicity was also measured in the mouse model by the NIH Anticonvulsant Screening Program at the National Institute of Neurological Disorders and Stroke (Stables and Kupferberg, 1997), according to the established NIH experimental procedures. Compounds were delivered into mice by intraperitoneal (i.p.) injection at a dose of 100 mg/kg in sterile 5% DMSO, 95% Neobee (Josey et al., 2013). Acute toxicity was assessed by monitoring the animals for impaired neuromuscular function by placing treated mice on a rod rotating at 6 rpm. […]

c-fos = c-fos gene expression in PTZ-treated zebrafish larvae; assay type: in vivo, zebrafish (Danio rerio); details: 7 dpf zebrafish, pre-treatment
Procedure: Ten 7 dpf larvae were placed in 500 μL tank water in wells of a 48-well cell-culture plate and appropriate concentrations of drugs were added as in the behavior study (Table 9). After a 1 h pre-incubation period, PTZ was added to a final concentration of 15 mM in appropriate wells and larvae were incubated for a further 45 min. Fish were quickly euthanized by incubating the plate in an ice-water bath for 15 min. Fish were removed from each well and all liquid removed before freezing at −80° C. RNA was extracted using Trizol (Invitrogen) followed by the RNeasy Mini kit (Qiagen). Frozen embryos were homogenized in 800 μL Trizol using in-tube pestles and a motorized homogenizer. Following a 5-min incubation at room temperature, 200 μL chloroform was added and the samples were centrifuged at 12,000 g for 10 min. The aqueous phase was transferred to a new tube and 250 μL 100% ethanol was added and the samples mixed. This mixture was then transferred to the Qiagen minicolumn assembly and the protocol followed as described with the kit. Samples were eluted in 30 μL RNase free water and concentration was determined using the Nanodrop instrument (Thermo Fisher). cDNA was prepared using the RETROscript kit (Ambion) with 500 ng total RNA. cDNA was then diluted 1:1 with sterile dH2O and 2.5 μL of this cDNA was used in the QPCR reaction with SsoAdvanced SYBR Green Supermix (BioRad) and c-fos primers designed to span an intron-exon junction (c-fos F: […], SEQ ID NO:9; c-fos R: […], SEQ ID NO:10) ([…] each) in the BioRad CFX96 RealTime instrument. L13a and EF1a gene expression were used for normalization (Rahn et al., 2013). The following cycle conditions were used: 95° C./3 min, 40 cycles of 95° C./15 s, 62° C./30 s, followed by 95° C. 30 s and a dissociation curve. Samples were run in duplicate. The 2^−ΔΔCt method was used to quantify gene expression, whereby all gene Ct values were first normalized to Ct values of the geometric mean of the Ct of L13a and EF1a (Livak and Schmittgen, 2001). Treated samples were then normalized to the tank water control and converted to fold change.

PTZ-induced seizures = assay: PTZ-induced seizure (swim activity) model in zebrafish larvae; assay type: in vivo, zebrafish (Danio rerio)
Procedure: The DanioVision locomotion tracking instrument with Ethovision XT software (Noldus) was used to measure the severity of the seizures by quantifying the locomotor activity of each fish.
In a 48-well plate, one 6-7 dpf larva was added per well. Compounds were given at a sub-lethal dose and treated for 1 h. Three control rows were included—tank water (TW) only, PTZ only and PTZ+VPA (2-4 mM final concentration of VPA). […] After 5 min, the plate was transferred to the Daniovision apparatus and the chamber light was turned on. After 2 min, Ethovision was used to determine the distance traveled (a marker of seizure of activity) by each fish for 15 min (25 frames per second). Velocity, duration of movement, and frequency of movement were also determined from the same recording. After measurement, fish were monitored visually for survival. The distance moved over the recording period with Ethovision XT software (Noldus) was averaged over 8 wells per treatment unless the fish was not detected.
In a 48-well plate, one 7 dpf zebrafish was added per well. Larvae were dosed with each compound at a sub-lethal dose 1 h prior to PTZ treatment. Three control rows were included with each experiment—tank water only control, PTZ only and PTZ+VPA (4 mM final concentration of VPA). […] After 5 min, the plate was transferred to the Daniovision instrument (Noldus Information Technology) and the chamber light was turned on. After 2 min, MediaRecorder (Noldus) was used to record video for 15 min. A small number of videos were acquired 25 frames per second, but the majority of the data was acquired at the frame rate of 60 frames per second. After recording, fish were monitored visually for survival. Ethovision XT software (Noldus) was used to track the fish movement from the video images in order to calculate the total distance traveled over 15 min. […] All experimental comparisons were made between animals from the same clutch.

## COC1=C(OC)C(=O)C(CCCCCCCCCCO)=C(C)C1=O [Ideb, Idebenone]
HT22 cells [1]; 5 μM
  depletion of total cellular GSH: did not prevent GSH depletion

## CN1C(=O)C(Cc2c[nH]c3ccccc23)NC1=S (stereo not drawn) [Nec-1, Necrostatin-1]
HT22 cells [1]; 50 μM
  depletion of total cellular GSH: did not prevent GSH depletion

## Cc1c(C)c2c(c(C)c1O)CCC(C)(C(=O)O)O2 (stereo not drawn) [Trolox]
[2]
  free radical scavenging capacity (DPPH absorbance): rapidly scavenged DPPH
HT22 cells [3]
  protection from t-BuOOH induced cell death: less effective
HT22 cells [1]; 25 μM
  depletion of total cellular GSH: did not prevent GSH depletion

## CCCC(CCC)C(=O)O [Valproic Acid (VPA), 2-n-propylpentanoic acid]
Zebrafish larvae
  Highest concentration tested for anti-seizure activity: 4 mM
c-fos
  PTZ-induced increase in c-fos expression: able to blunt this increase in expression
PTZ-induced seizures; PTZ-treated zebrafish larvae
  required concentration for reduction of seizures: 4 mM
PTZ-induced seizures; PTZ-treated zebrafish larvae, pretreated 1 hr at NOEC
  Seizure suppression: Yes
PTZ-induced seizures; zebrafish larvae, 1 h pretreatment at sub-lethal concentration (VPA 4 mM, NQN-1 3 μM), 15 mM PTZ
  PTZ-induced swim activity (distance traveled): significantly reduced distance traveled compared to PTZ alone

## O=C1O[C@H]([C@@H](O)CO)C(O)=C1O [ascorbic acid]
[2]
  free radical scavenging capacity (DPPH absorbance): rapidly scavenged DPPH

## COC1=C(OC)C(=O)C(C/C=C(\C)CC/C=C(\C)CC/C=C(\C)CC/C=C(\C)CC/C=C(\C)CC/C=C(\C)CC/C=C(\C)CC/C=C(\C)CC/C=C(\C)CCC=C(C)C)=C(C)C1=O [co-enzyme Q10]
HT22 cells [3]
  protection from t-BuOOH induced cell death: less effective
